Measured values taken from patent US20040254221A1, “Novel Nitrogenous Compound and use thereof” (priority 2001, published 2004).
pEC50: −log10 of the molar value.

Legend:
[1] = test system: HIV-1IIIB infected MT-4 cells; assay: Antiviral activity in HIV-1IIIB infected MT-4 cells (MTT method); assay type: cell-based; details: Human immunodeficiency virus 1, MT4, 120 h, MOI 0.01, MT-4 cells, 5 days, read-out: EC50 (concentration required for inhibition of cell disorder due to HIV infection by 50%)
Experimental: Immediately after infection, HIV-1IIIB infected MT-4 cells (3.0×10^4/well, MOI (Multiplicity of infection): 0.01) were added to a 96-well microtiter plate together with the test compounds having different concentrations. The cells were cultured in a carbon dioxide incubator at 37° C. for 5 days, and the number of living cells was measured in accordance with the MTT (tetrazolium) method ([…] et al., J. of Virol. Method, 20, 309-321 (1988)). The antiviral activity is represented the concentration required for inhibition of cell disorder due to HIV infection by 50% (EC50: 50% Effective Concentration), and expressed using μM, and the results are shown in Table 2.

receptors CXCR4 = target: T1, receptors CXCR4 (Homo sapiens, UniProt P61073); assay: Inhibition of 125I-SDF-1 binding to CXCR4 on MT4 cells; details: 125I-SDF-1 ligand, 2 hours under ice-cooling, read-out: Inhibition rate (binding-inhibition %)
T1 construct: endogenous in cells; host or cells: MT4 cells
Experimental: MT4 cells (5×10^6/0.2 ml/well) were cultured on a 24-well microtiter plate. After the cells were incubated for 24 hours at 37° C. in a carbon dioxide gas incubator, a culture medium was replaced with a buffer solution (0.1% BSA-containing RPMI-1640). Together with a ligand (^125I-SDF-1″, specific activity: 2,200 Ci/mmol; manufactured by Daiichi Chemicals Co., Ltd. (Tokyo)), test materials of various concentrations were subjected to a binding reaction for 2 hours under ice-cooling.

ICR mice (male) = details: mouse, in vivo, 4 days
Experimental: The acute toxicity of the aforementioned compound was examined. Specifically, 7-week-old ICR mice (male) were divided into several groups (4 or 5 mice in each group), and the mice were bred for 1 week for habituation. Subsequently, each of the compounds of Examples was dissolved in distilled water or physiological saline, and the solution was administered to the mice via tail vein (dose: 15 mg/kg) twice a day for 4 days. On the fifth day, dead mice were counted.

T1 sequence (P61073 whole entry): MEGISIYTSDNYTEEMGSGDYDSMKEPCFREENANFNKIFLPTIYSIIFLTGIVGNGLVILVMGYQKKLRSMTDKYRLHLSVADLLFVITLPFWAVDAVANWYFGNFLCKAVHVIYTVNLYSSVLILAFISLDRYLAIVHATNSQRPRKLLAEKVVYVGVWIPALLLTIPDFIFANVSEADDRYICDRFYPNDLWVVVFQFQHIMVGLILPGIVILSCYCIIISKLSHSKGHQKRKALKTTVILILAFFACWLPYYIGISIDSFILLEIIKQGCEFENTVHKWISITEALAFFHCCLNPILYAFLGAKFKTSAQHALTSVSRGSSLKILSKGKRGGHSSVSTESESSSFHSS

| SMILES | pEC50 [1] | inhibition at 0.1 µM (receptors CXCR4) | Dead mice/test mice (ICR mice (male)) |
| --- | --- | --- | --- |
| Cc1ccccc1CNCCC[C@H](NC(=O)c1ccc(CNCc2ncc[nH]2)cc1)C(=O)N[C@@H](C)c1cccc2ccccc12 [Compound No. 1, N-[(S)-1-(1-naphthyl)ethyl]-5-(2-methylbenzyl)amino-2-(S)-[4-[N-(imidazol-2-ylmethyl)aminomethyl]benzoyl]aminopentanoylamide] | 7.24 | 100% | – |
| COc1ccccc1CNCCC[C@H](NC(=O)c1ccc(CNCc2ncc[nH]2)cc1)C(=O)N[C@@H](C)c1cccc2ccccc12 [Compound No. 2, N-[(S)-1-(1-naphthyl)ethyl]-5-(2-methoxybenzyl)amino-2-(S)-[4-[N-(imidazol-2-ylmethyl)aminomethyl]benzoyl]aminopentanoylamide] | 7.00 | 97.6% | – |
| Cc1cccnc1CNCCC[C@H](NC(=O)c1ccc(CNCc2ncc[nH]2)cc1)C(=O)N[C@@H](C)c1cccc2ccccc12 [Compound No. 9, N-[(S)-1-(1-naphthyl)ethyl]-5-(3-methylpyridin-2-yl)methylamino-2-(S)-[4-[N-(imidazol-2-ylmethyl)aminomethyl]benzoyl]aminopentanoylamide] | 7.26 | – | 0/5 |
| CCc1ccccc1CNCCC[C@H](NC(=O)c1ccc(CNCc2ncc[nH]2)cc1)C(=O)N[C@@H](C)c1cccc2ccccc12 [Compound No. 22, N-[(S)-1-(1-naphthyl)ethyl]-5-(2-ethylbenzyl)amino-2-(S)-[4-[N-(imidazol-2-ylmethyl)aminomethyl]benzoyl]aminopentanoylamide] | 7.52 | – | – |
| C[C@H](NC(=O)[C@H](CCCNC1CCCCC1)NC(=O)c1ccc(CNCc2ncc[nH]2)cc1)c1cccc2ccccc12 [Compound No. 27, N-[(S)-1-(1-naphthyl)ethyl]-5-cyclohexylamino-2-(S)-[4-[N-(imidazol-2-ylmethyl)aminomethyl]benzoyl]aminopentanoylamide] | – | 97% | – |
| C[C@H](NC(=O)[C@H](CCCNC1CCCc2ccccc21)NC(=O)c1ccc(CNCc2ncc[nH]2)cc1)c1cccc2ccccc12 (stereo partly drawn) [Compound No. 28, N-[(S)-1-(1-naphthyl)ethyl]-5-(1,2,3,4-tetrahydronaphthalen-1-yl)amino-2-(S)-[4-[N-(imidazol-2-ylmethyl)aminomethyl]benzoyl]aminopentanoylamide] | – | 100% | – |
| C[C@H](NC(=O)[C@H](CCCNC1CCc2ccccc21)NC(=O)c1ccc(CNCc2ncc[nH]2)cc1)c1cccc2ccccc12 (stereo partly drawn) [Compound No. 29, N-[(S)-1-(1-naphthyl)ethyl]-5-(indan-1-yl)amino-2-(S)-[4-[N-(imidazol-2-ylmethyl)aminomethyl]benzoyl]aminopentanoylamide] | – | 100% | 0/5 |
| CC(C)CN(CCC[C@H](NC(=O)c1ccc(CNCc2ncc[nH]2)cc1)C(=O)N[C@@H](C)c1cccc2ccccc12)CC(C)C [Compound No. 33, N-[(S)-1-(1-naphthyl)ethyl]-5-diisobutylamino-2-(S)-[4-[N-(imidazol-2-ylmethyl)aminomethyl]benzoyl]aminopentanoylamide] | 8.17 | 100% | 0/5 |
| CCCN(CCC)CCC[C@H](NC(=O)c1ccc(CNCc2ncc[nH]2)cc1)C(=O)N[C@@H](C)c1cccc2ccccc12 [Compound No. 34, N-[(S)-1-(1-naphthyl)ethyl]-5-di-n-propylamino-2-(S)-[4-[N-(imidazol-2-ylmethyl)aminomethyl]benzoyl]aminopentanoylamide] | 7.82 | 98% | 0/5 |
| CCCN(CCC[C@H](NC(=O)c1ccc(CNCc2ncc[nH]2)cc1)C(=O)N[C@@H](C)c1cccc2ccccc12)CC(C)C [Compound No. 39, N-[(S)-1-(1-naphthyl)ethyl]-5-(N-n-propyl-isobutylamino)-2-(S)-[4-[N-(imidazol-2-ylmethyl)aminomethyl]benzoyl]aminopentanoylamide] | 7.84 | – | 0/5 |
| C[C@H](NC(=O)[C@H](CCCN(C)C1CCCCC1)NC(=O)c1ccc(CNCc2ncc[nH]2)cc1)c1cccc2ccccc12 [Compound No. 42, N-[(S)-1-(1-naphthyl)ethyl]-5-(N-methyl-cyclohexylamino)-2-(S)-[4-[N-(imidazol-2-ylmethyl)aminomethyl]benzoyl]aminopentanoylamide] | 7.84 | – | 0/5 |
| C[C@H](NC(=O)[C@H](CCCN1CCCCCC1)NC(=O)c1ccc(CNCc2ncc[nH]2)cc1)c1cccc2ccccc12 [Compound No. 55, N-[(S)-1-(1-naphthyl)ethyl]-5-(hexamethyleneimin-1-yl)-2-(S)-[4-[N-(imidazol-2-ylmethyl)aminomethyl]benzoyl]aminopentanoylamide] | 7.54 | 89.3% | 0/5 |
| CC(C)CN(CCO)CCC[C@H](NC(=O)c1ccc(CNCc2ncc[nH]2)cc1)C(=O)N[C@@H](C)c1cccc2ccccc12 [Compound No. 66, N-[(S)-1-(1-naphthyl)ethyl]-5-(N-isobutyl-(2-hydroxyethyl)amino)-2-(S)-[4-[N-(imidazol-2-ylmethyl)aminomethyl]benzoyl]aminopentanoylamide] | 7.70 | 90.6% | 0/5 |
| C[C@H](NC(=O)[C@H](CCCSC(=N)N)NC(=O)c1ccc(CNCc2ccccn2)cc1)c1cccc2ccccc12 [Compound No. 73, N-[(S)-1-(1-naphthyl)ethyl]-5-sulfinamidino-2-(S)-[4-[N-(pyridin-2-ylmethyl)aminomethyl]benzoyl]aminopentanoylamide] | 7.16 | 93.5% | 0/5 |
| C/N=C(\N)SCCC[C@H](NC(=O)c1ccc(CNCc2ccccn2)cc1)C(=O)N[C@@H](C)c1cccc2ccccc12 [Compound No. 74, N-[(S)-1-(1-naphthyl)ethyl]-5-(N-methylsulfinamidino)-2-(S)-[4-[N-(pyridin-2-ylmethyl)aminomethyl]benzoyl]aminopentanoylamide] | 7.34 | – | 0/5 |
